Data reported in ChEMBL document CHEMBL1130502, “Lipopeptide antifungal agents: Amine conjugates of the semi-synthetic pneumocandins L-731,373 and L-733,560” (Bioorg Med Chem Lett, 1997).
pIC50: −log10 of the molar value. ≈ marks a conversion by molar mass, not a printed value. *1 amine or outer side, *2 acyl side, *3 side chain or, on linkers, in order; H or OH if unused. Where a SMILES comes first, the peptide text is derived from it. Bridges are numbered along the chain shown (N, C = ends). [ ]: non-standard residue; d: D form. The star is where a group is joined. ξ: configuration not given here. ξOrn(4R-OH,5R-OH) = O=C(C(C[C@@H](O)[C@@H](O)N[*:3])N[*:1])[*:2]; hTyr(3S-OH,4S-OH) = N[C@H](C(=O)O)[C@H](O)[C@@H](O)c1ccc(O)cc1; Orn(3R-OH) = NCC[C@@H](O)[C@H](N)C(=O)O; X2 = O=C(C1CN([*:1])C[C@@H]1O)[*:2]; ξPro(4R-OH) = O=C(O)C1C[C@@H](O)CN1; X1 = CCC(C)CC(C)CCCCCCCCC(=O)*

Columns and labels:
1,3-beta-glucan synthase = 1,3-beta-glucan synthase (Candida glabrata, UniProt F5BCZ9); assay: Inhibition of 1,3-beta-glucan synthase; parameters: species or system Candida glabrata CBS 138
1,3-beta-glucan synthase, sequence (F5BCZ9 whole entry): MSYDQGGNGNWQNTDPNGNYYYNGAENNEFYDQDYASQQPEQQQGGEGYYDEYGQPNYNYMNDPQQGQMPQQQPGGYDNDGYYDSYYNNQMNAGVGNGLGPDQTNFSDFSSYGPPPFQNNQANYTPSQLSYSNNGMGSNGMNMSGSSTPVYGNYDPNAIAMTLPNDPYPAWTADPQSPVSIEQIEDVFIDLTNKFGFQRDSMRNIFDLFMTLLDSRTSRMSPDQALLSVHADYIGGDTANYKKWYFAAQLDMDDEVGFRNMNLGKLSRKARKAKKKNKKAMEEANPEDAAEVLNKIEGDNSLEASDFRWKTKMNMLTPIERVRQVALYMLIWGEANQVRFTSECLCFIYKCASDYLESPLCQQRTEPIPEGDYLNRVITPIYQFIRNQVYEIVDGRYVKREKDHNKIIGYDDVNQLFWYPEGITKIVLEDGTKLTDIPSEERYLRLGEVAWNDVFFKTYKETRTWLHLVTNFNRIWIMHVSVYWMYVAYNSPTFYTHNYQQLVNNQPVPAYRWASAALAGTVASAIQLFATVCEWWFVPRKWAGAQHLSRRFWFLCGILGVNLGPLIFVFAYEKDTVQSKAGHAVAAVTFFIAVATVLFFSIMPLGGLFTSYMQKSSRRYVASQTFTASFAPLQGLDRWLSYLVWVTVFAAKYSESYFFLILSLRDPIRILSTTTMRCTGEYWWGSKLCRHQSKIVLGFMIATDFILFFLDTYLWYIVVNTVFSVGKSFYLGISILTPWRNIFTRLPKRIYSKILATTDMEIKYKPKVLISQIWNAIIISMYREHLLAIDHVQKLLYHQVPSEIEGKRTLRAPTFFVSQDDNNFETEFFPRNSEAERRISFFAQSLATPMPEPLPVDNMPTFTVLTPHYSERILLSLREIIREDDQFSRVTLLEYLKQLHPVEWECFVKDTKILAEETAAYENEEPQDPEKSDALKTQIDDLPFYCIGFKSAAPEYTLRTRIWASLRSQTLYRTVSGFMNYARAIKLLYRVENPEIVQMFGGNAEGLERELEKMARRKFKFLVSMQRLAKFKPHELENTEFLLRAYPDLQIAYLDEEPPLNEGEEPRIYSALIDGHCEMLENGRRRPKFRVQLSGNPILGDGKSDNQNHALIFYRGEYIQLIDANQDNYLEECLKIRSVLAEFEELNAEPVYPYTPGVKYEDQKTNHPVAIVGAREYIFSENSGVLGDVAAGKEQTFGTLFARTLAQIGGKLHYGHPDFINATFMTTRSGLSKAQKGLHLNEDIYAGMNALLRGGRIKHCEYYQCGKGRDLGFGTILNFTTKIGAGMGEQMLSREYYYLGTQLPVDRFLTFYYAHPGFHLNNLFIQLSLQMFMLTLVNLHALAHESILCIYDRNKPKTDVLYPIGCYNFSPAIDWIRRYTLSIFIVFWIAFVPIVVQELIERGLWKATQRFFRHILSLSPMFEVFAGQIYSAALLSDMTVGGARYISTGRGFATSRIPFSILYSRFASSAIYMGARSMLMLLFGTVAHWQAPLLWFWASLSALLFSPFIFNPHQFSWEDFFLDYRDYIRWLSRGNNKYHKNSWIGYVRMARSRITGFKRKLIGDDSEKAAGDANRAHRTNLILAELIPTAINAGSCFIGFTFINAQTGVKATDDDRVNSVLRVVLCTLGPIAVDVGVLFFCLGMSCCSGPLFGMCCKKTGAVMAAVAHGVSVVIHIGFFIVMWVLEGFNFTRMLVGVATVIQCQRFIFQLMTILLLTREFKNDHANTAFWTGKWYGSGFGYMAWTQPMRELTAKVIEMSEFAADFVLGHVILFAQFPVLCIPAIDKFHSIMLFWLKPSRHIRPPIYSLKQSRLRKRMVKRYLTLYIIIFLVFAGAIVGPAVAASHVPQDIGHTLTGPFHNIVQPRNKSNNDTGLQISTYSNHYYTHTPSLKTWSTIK

Mus musculus [1] = species: Mus musculus; assay: […] anti-candida activity expressed as ED99.9 in a mouse model of disseminated candidiasis (TOKA); format: functional
[2] = Acute toxicity in mice after intravenous administration; settings: mouse, in vivo
Mus musculus [3] = assay: In vivo effective intraperitoneal dose to achieve least 50% survival in a mouse model of disseminated aspergillosis; format: functional; settings: ip
Candida albicans [4] = assay: Tested for minimum fungicidal concentration (MFC) against Candida albicans (MY 1055); format: functional
Mus musculus [5] = species: Mus musculus; assay: Percentage of mice with complete eradication of candida in kidneys; format: functional, Kidney
Clavispora lusitaniae [6] = assay: Tested for in vitro minimum fungicidal concentration (MFC) against C. lusitaniae; 0.06-0.5; format: functional
Candida parapsilosis [7] = assay: Tested for in vitro minimum fungicidal concentration (MFC) against C. parapsilosis; 0.25-1; format: functional
Nakaseomyces glabratus [8] = assay: Tested for in vitro minimum fungicidal concentration (MFC) against C. glabrata; 0.5-1; format: functional
Cryptococcus neoformans [9] = assay: Tested for in vitro minimum fungicidal concentration (MFC) against C. neoformans; 8-32; format: functional
Candida tropicalis [10] = assay: Tested for in vitro minimum fungicidal concentration (MFC) against C. tropicalis; 0.06-1; format: functional
[11] = test system: Meyerozyma guilliermondii; assay: Tested for in vitro minimum fungicidal concentration (MFC) against C. guilliermondii; 0.5-4; format: functional
Pichia kudriavzevii [12] = assay: Tested for in vitro minimum fungicidal concentration (MFC) against C. krusei; 1-2; format: functional
Candida albicans [13] = assay: Tested for in vitro minimum fungicidal concentration (MFC) against C. albicans; 0.03-0.5; format: functional
Kluyveromyces marxianus [14] = assay: Tested for in vitro minimum fungicidal concentration (MFC) against C. pseudotropicalis; 0.06-0.5; format: functional
Candida albicans [15] = assay: Tested for in vitro minimum fungicidal concentration (MFC) against C. albicans; 0.06-0.5; format: functional
Candida tropicalis [16] = assay: Tested for in vitro minimum fungicidal concentration (MFC) against C. tropicalis; 0.25-0.5; format: functional
Kluyveromyces marxianus [17] = assay: Tested for in vitro minimum fungicidal concentration (MFC) against C. pseudotropicalis; 0.125-0.5; format: functional
Cryptococcus neoformans [18] = assay: Tested for in vitro minimum fungicidal concentration (MFC) against C. neoformans; 0.125-0.5; format: functional
Pichia kudriavzevii [19] = assay: Tested for in vitro minimum fungicidal concentration (MFC) against C. krusei; 0.25-0.5; format: functional
Candida parapsilosis [20] = assay: Tested for in vitro minimum fungicidal concentration (MFC) against C. parapsilosis; 0.5-1; format: functional
[21] = test system: Meyerozyma guilliermondii; assay: Tested for in vitro minimum fungicidal concentration (MFC) against C. guilliermondii; 0.125-0.5; format: functional
Clavispora lusitaniae [22] = assay: Tested for in vitro minimum fungicidal concentration (MFC) against C. lusitaniae; 0.5-2; format: functional
Nakaseomyces glabratus [23] = assay: Tested for in vitro minimum fungicidal concentration (MFC) against C. glabrata; 0.125-0.5; format: functional

## CCC(C)CC(C)CCCCCCCCC(=O)NC1C[C@@H](O)[C@@H](OCCN)NC(=O)C2CN(C[C@@H]2O)C(=O)[C@H]([C@H](O)CCNC(=O)[C@@H](N)CCCCN)NC(=O)[C@H]([C@H](O)[C@@H](O)c2ccc(O)cc2)NC(=O)C2C[C@@H](O)CN2C(=O)[C@H]([C@@H](C)O)NC1=O (stereo partly specified)
1,3-beta-glucan synthase
  pIC50: 8.52
Mus musculus [1]
  ED99.9: 0.09 mg/kg
[2]
  Dose: 60 mg/kg
Mus musculus [3]
  ED50: < 0.02 mg/kg
Candida albicans [4]
  MFC: 0.125 µg/mL (≈ 0.102 µM)
Mus musculus [5]
  Sterilized: 0%

## CCC(C)CC(C)CCCCCCCCC(=O)NC1C[C@@H](O)[C@@H](OCCN)NC(=O)C2CN(C[C@@H]2O)C(=O)[C@H]([C@H](O)CCN)NC(=O)[C@H]([C@H](O)[C@@H](O)c2ccc(O)cc2)NC(=O)C2C[C@@H](O)CN2C(=O)[C@H]([C@@H](C)O)NC1=O (stereo partly specified)
1,3-beta-glucan synthase
  pIC50: 9.00
Clavispora lusitaniae [6]
  MFC90: 0.5 µg/mL (≈ 0.457 µM)
Candida parapsilosis [7]
  MFC90: 0.5 µg/mL (≈ 0.457 µM)
Mus musculus [1]
  ED99.9: 0.09 mg/kg
[2]
  Dose: 30 mg/kg
Nakaseomyces glabratus [8]
  MFC90: 1 µg/mL (≈ 0.914 µM)
Cryptococcus neoformans [9]
  MFC90: 32 µg/mL (≈ 29.2 µM)
Mus musculus [3]
  ED50: 0.03 mg/kg
Candida tropicalis [10]
  MFC90: 0.5 µg/mL (≈ 0.457 µM)
Candida albicans [4]
  MFC: 0.125 µg/mL (≈ 0.114 µM)
[11]
  MFC90: 4 µg/mL (≈ 3.66 µM)
Pichia kudriavzevii [12]
  MFC90: 1 µg/mL (≈ 0.914 µM)
Candida albicans [13]
  MFC90: 0.5 µg/mL (≈ 0.457 µM)
Kluyveromyces marxianus [14]
  MFC90: 0.5 µg/mL (≈ 0.457 µM)
Mus musculus [5]
  Sterilized: 80%

## C[C@@H]1[C@H](O)[C@@H](C)/C=C/C=C/C=C/C=C/C=C/C=C/C=C/[C@H](O[C@@H]2O[C@H](C)[C@@H](O)[C@H](N)[C@@H]2O)C[C@@H]2O[C@](O)(C[C@@H](O)C[C@@H](O)[C@H](O)CC[C@@H](O)C[C@@H](O)CC(=O)O[C@H]1C)C[C@H](O)[C@H]2C(=O)O [AMPHOTERICIN B]
Candida albicans [15]
  MFC90: 0.25 µg/mL (≈ 0.271 µM)
Candida tropicalis [16]
  MFC90: 0.5 µg/mL (≈ 0.541 µM)
Kluyveromyces marxianus [17]
  MFC90: 0.5 µg/mL (≈ 0.541 µM)
Cryptococcus neoformans [18]
  MFC90: 0.5 µg/mL (≈ 0.541 µM)
Pichia kudriavzevii [19]
  MFC90: 0.5 µg/mL (≈ 0.541 µM)
Candida parapsilosis [20]
  MFC90: 1 µg/mL (≈ 1.08 µM)
[21]
  MFC90: 0.5 µg/mL (≈ 0.541 µM)
Clavispora lusitaniae [22]
  MFC90: 2 µg/mL (≈ 2.16 µM)
Nakaseomyces glabratus [23]
  MFC90: 0.5 µg/mL (≈ 0.541 µM)

## CCC(C)CC(C)CCCCCCCCC(=O)NC1C[C@@H](O)[C@@H](O)NC(=O)C2CN(C[C@@H]2O)C(=O)[C@H]([C@H](O)CCNC(=O)CCCN)NC(=O)[C@H]([C@H](O)[C@@H](O)c2ccc(O)cc2)NC(=O)C2C[C@@H](O)CN2C(=O)[C@H]([C@@H](C)O)NC1=O (stereo partly specified)
1,3-beta-glucan synthase
  pIC50: 7.30
Mus musculus [1]
  ED99.9: 1.5 mg/kg
[2]
  Dose: > 100 mg/kg
Candida albicans [4]
  MFC: < 0.06 µg/mL
Mus musculus [5]
  Sterilized: 40%

## CCC(C)CC(C)CCCCCCCCC(=O)NC1C[C@@H](O)[C@@H](O)NC(=O)C2CN(C[C@@H]2O)C(=O)[C@H]([C@H](O)CCNC(=O)[C@@H](N)CCCN)NC(=O)[C@H]([C@H](O)[C@@H](O)c2ccc(O)cc2)NC(=O)C2C[C@@H](O)CN2C(=O)[C@H]([C@@H](C)O)NC1=O (stereo partly specified)
1,3-beta-glucan synthase
  pIC50: 8.52
Mus musculus [1]
  ED99.9: 0.375 mg/kg
[2]
  Dose: > 200 mg/kg
Candida albicans [4]
  MFC: < 0.06 µg/mL
Mus musculus [5]
  Sterilized: 20%

## CCC(C)CC(C)CCCCCCCCC(=O)NC1C[C@@H](O)[C@@H](O)NC(=O)C2CN(C[C@@H]2O)C(=O)[C@H]([C@H](O)CCNC(=O)[C@@H](N)CCN)NC(=O)[C@H]([C@H](O)[C@@H](O)c2ccc(O)cc2)NC(=O)C2C[C@@H](O)CN2C(=O)[C@H]([C@@H](C)O)NC1=O (stereo partly specified)
1,3-beta-glucan synthase
  pIC50: 7.22
Mus musculus [1]
  ED99.9: 0.375 mg/kg
[2]
  Dose: > 250 mg/kg
Candida albicans [4]
  MFC: 0.25 µg/mL (≈ 0.217 µM)
Mus musculus [5]
  Sterilized: 60%

## CCC(C)CC(C)CCCCCCCCC(=O)NC1C[C@@H](O)[C@@H](O)NC(=O)C2CN(C[C@@H]2O)C(=O)[C@H]([C@H](O)CCN)NC(=O)[C@H]([C@H](O)[C@@H](O)c2ccc(O)cc2)NC(=O)C2C[C@@H](O)CN2C(=O)[C@H]([C@@H](C)O)NC1=O (stereo partly drawn) (X1-[ξOrn(4R-OH,5R-OH)]T[ξPro(4R-OH)][hTyr(3S-OH,4S-OH)][Orn(3R-OH)][X2]; lactam 1-C)
1,3-beta-glucan synthase
  pIC50: 8.00
Mus musculus [1]
  ED99.9: 0.375 mg/kg
[2]
  Dose: 100 mg/kg
Mus musculus [3]
  ED50: > 20 mg/kg
Candida albicans [4]
  MFC: < 0.06 µg/mL
Mus musculus [5]
  Sterilized: 70%

## CCC(C)CC(C)CCCCCCCCC(=O)NC1C[C@@H](O)[C@@H](OCCN)NC(=O)C2CN(C[C@@H]2O)C(=O)[C@H]([C@H](O)CCNC(=O)[C@@H](N)CCN)NC(=O)[C@H]([C@H](O)[C@@H](O)c2ccc(O)cc2)NC(=O)C2C[C@@H](O)CN2C(=O)[C@H]([C@@H](C)O)NC1=O (stereo partly specified)
1,3-beta-glucan synthase
  pIC50: 8.22
Mus musculus [1]
  ED99.9: 0.09 mg/kg
[2]
  Dose: 100 mg/kg
Candida albicans [4]
  MFC: 0.5 µg/mL (≈ 0.419 µM)
Mus musculus [5]
  Sterilized: 0%
